Assay results taken from ChEMBL document CHEMBL6103591, “Discovery of naphthoquinone-furo-piperidone derivatives as dual targeting agents of STAT3 and NQO1 for the treatment of breast cancer” (Eur J Med Chem, 2025).
The source made the active and inactive calls. The rule behind the calls is not given here.

Tests used:
MDA-MB-231 [1] = test: Effect on STAT5 expression level in human MDA-MB-231 cells at 0.6 to 2.5 uM incubated for 24 hrs by Western blot analysis; assay type: functional, cell-based; conditions: dose 0.6-2.5 µM
[2] = target: T1, Signal transducer and activator of transcription 3 (Homo sapiens, UniProt P40763); test: Inhibition of phosphorylated STAT3 nuclear translocation in human MDA-MB-231 cells incubated for 6 hrs by immunofluorescence assay; assay type: cell-based; conditions: dose 1.5-3 µM
T1 sequence (P40763 whole entry): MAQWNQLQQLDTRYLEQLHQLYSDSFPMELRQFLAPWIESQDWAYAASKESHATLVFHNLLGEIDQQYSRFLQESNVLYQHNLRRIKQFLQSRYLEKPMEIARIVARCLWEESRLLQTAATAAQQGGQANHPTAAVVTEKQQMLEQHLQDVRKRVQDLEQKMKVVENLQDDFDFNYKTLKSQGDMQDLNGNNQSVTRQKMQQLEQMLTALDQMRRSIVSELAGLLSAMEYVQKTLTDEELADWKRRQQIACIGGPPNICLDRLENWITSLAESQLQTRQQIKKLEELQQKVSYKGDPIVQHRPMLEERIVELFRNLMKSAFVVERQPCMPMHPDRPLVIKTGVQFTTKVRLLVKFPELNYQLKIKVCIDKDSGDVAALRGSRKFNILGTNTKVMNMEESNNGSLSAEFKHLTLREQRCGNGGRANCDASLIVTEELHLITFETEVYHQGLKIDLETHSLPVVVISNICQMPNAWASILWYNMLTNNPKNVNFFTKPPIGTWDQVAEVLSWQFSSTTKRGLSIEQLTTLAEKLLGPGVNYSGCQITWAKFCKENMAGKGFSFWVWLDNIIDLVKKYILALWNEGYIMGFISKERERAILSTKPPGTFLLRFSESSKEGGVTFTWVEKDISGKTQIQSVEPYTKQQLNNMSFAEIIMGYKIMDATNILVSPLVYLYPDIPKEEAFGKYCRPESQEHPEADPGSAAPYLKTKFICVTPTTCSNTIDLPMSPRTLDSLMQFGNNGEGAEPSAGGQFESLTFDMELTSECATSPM

Mus musculus = test: In vivo inhibition of STAT3 in female BALB/c nude mouse xenografted with human MDA-MB-231 cells assessed as decrease in p-STAT3 level in tumor tissue at 10 mg/kg, ip administered daily and measured every 2 days for 21 days by IHC staining analysis; assay type: functional, organism-based; conditions: time 21.0 day
MDA-MB-231 [3] = test: Inhibition of colony formation in human MDA-MB-231 cells at 3 uM incubated for 10 to 15 days by crystal violet staining based microscopic analysis; assay type: functional, cell-based; conditions: time 10-15 day
MDA-MB-231 [4] = test: Antitumor activity against human MDA-MB-231 cells xenografted in female BALB/c nude mouse assessed as increase in TUNEL-positive cells in tumor tissue at 10 mg/kg, ip administered daily and measured every 2 days for 21 days by immunofluorescence analysis; assay type: functional, organism-based; conditions: time 21.0 day
MCF7 [5] = test: Induction of ROS generation in NQO1-rich human MCF7 cells assessed as increase in intracellular ROS level at 1.25 uM in presence of DIC by DCFH-DA staining based confocal microscopic analysis; assay type: functional, cell-based
MDA-MB-231 [6] = test: Induction of apoptosis in human MDA-MB-231 cells assessed as increase in Bax level at 1.5 to 3 uM by Western blotting analysis; assay type: functional, cell-based; conditions: dose 1.5-3 µM
MDA-MB-231 [7] = test: Inhibition of STAT5 phosphorylation at Tyr694 residue in human MDA-MB-231 cells at 0.6 to 2.5 uM incubated for 24 hrs by Western blot analysis; assay type: cell-based; conditions: dose 0.6-2.5 µM
MDA-MB-231 [8] = test: Antiproliferative activity against human MDA-MB-231 cells transfected with shSTAT3 RNA at 1.5 uM incubated for 24 hrs by MTT assay; assay type: functional, cell-based
MDA-MB-231 [9] = test: Induction of apoptosis in human MDA-MB-231 cells assessed as increase in cleaved-caspase 3 level at 1.5 to 3 uM by Western blotting analysis; assay type: functional, cell-based; conditions: dose 1.5-3 µM
MCF7 [10] = test: Induction of DNA damage in human MCF7 cells at 1.25 uM incubated for 24 hrs by fluorescence microscopy based alkaline comet assay; assay type: functional, cell-based
MDA-MB-468 [11] = test: Antiproliferative activity against human MDA-MB-468 cells transfected with shSTAT3 RNA at 1.5 uM incubated for 24 hrs by MTT assay; assay type: functional, cell-based
MDA-MB-468 [12] = test: Inhibition of colony formation in human MDA-MB-468 cells at 3 uM incubated for 10 to 15 days by crystal violet staining based microscopic analysis; assay type: functional, cell-based; conditions: time 10-15 day
MDA-MB-231 [13] = test: Effect on STAT1 expression level in human MDA-MB-231 cells at 0.6 to 2.5 uM incubated for 24 hrs by Western blot analysis; assay type: functional, cell-based; conditions: dose 0.6-2.5 µM
MDA-MB-468 [14] = test: Induction of apoptosis in human MDA-MB-468 cells assessed as increase in cleaved PARP level at 1.5 to 3 uM by Western blotting analysis; assay type: functional, cell-based; conditions: dose 1.5-3 µM, time 24.0 hrs
MCF7 [15] = test: Induction of ROS generation in NQO1-rich human MCF7 cells assessed as increase in intracellular ROS level by DCFH-DA staining based confocal microscopic analysis; assay type: functional, cell-based; conditions: dose 1.25-2.5 µM
MDA-MB-231 [16] = test: Antimetastatic activity against human MDA-MB-231 cells assessed as reduction in cell migration incubated for 24 hrs by crystal violet staining based transwell assay; assay type: functional; conditions: dose 0.1875-3 µM
MDA-MB-468 [17] = test: Induction of apoptosis in human MDA-MB-468 cells assessed as increase in cleaved-caspase 3 level at 1.5 to 3 uM by Western blotting analysis; assay type: functional, cell-based; conditions: dose 1.5-3 µM
MDA-MB-231 [18] = test: Antitumor activity against human MDA-MB-231 cells xenografted in female BALB/c nude mouse assessed as reduction in tumor volume at 10 mg/kg, ip administered daily and measured every 2 days for 21 days; assay type: functional, organism-based; conditions: time 21.0 day
[19] = target: T2, Signal transducer and activator of transcription 1-alpha/beta (Homo sapiens) (UniProt P42224); test: Inhibition of STAT1 phosphorylation at Tyr701 residue in human MDA-MB-231 cells at 0.6 to 2.5 uM incubated for 24 hrs by Western blot analysis; assay type: cell-based; conditions: dose 0.6-2.5 µM
T2 sequence (whole entry): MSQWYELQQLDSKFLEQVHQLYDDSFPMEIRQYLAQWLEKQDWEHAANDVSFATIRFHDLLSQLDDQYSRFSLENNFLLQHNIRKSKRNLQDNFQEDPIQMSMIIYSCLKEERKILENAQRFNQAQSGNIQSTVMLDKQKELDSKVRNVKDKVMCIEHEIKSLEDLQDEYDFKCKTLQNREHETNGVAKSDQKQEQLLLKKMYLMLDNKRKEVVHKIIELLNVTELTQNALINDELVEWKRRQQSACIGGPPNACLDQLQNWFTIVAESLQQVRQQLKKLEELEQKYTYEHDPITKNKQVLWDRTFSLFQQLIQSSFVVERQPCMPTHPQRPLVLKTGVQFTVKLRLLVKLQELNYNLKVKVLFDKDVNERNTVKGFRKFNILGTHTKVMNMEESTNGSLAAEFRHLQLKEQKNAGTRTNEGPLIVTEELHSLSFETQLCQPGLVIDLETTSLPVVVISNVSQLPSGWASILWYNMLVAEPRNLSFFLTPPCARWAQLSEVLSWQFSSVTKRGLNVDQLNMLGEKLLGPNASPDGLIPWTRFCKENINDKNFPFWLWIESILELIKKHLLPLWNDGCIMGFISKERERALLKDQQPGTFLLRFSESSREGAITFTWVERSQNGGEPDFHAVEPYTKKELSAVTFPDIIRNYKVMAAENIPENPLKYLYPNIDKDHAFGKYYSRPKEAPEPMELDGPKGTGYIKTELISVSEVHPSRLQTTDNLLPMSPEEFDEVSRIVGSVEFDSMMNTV

[20] = target: T1, Signal transducer and activator of transcription 3; test: Inhibition of phosphorylated STAT3 nuclear translocation in human MDA-MB-468 cells incubated for 6 hrs by immunofluorescence assay; assay type: cell-based; conditions: dose 1.5-3 µM
MDA-MB-468 [21] = test: Induction of apoptosis in human MDA-MB-468 cells assessed as increase in Bax level at 1.5 to 3 uM by Western blotting analysis; assay type: functional, cell-based; conditions: dose 1.5-3 µM
MDA-MB-231 [22] = test: Antitumor activity against human MDA-MB-231 cells xenografted in female BALB/c nude mouse assessed as reduction in tumor weight at 10 mg/kg, ip administered daily and measured every 2 days for 21 days; assay type: functional, organism-based; conditions: time 21.0 day
[23] = target: T1, Signal transducer and activator of transcription 3; test: Inhibition of STAT3 in human MDA-MB-231 cells assessed as downregulation of c-Myc expression measured after 24 hrs by Western blot analysis; assay type: cell-based; conditions: dose 0.6-2.5 µM
MCF7 [24] = test: Induction of DNA damage in human MCF7 cells at 1.25 uM incubated for 24 hrs in presence of DIC by fluorescence microscopy based alkaline comet assay; assay type: functional, cell-based
MDA-MB-231 [25] = test: Induction of apoptosis in human MDA-MB-231 cells assessed as increase in cleaved PARP level at 1.5 to 3 uM by Western blotting analysis; assay type: functional, cell-based; conditions: dose 1.5-3 µM
[26] = target: T1, Signal transducer and activator of transcription 3; test: Inhibition of STAT3 in human MDA-MB-231 cells assessed as downregulation of Cyclin-D1 expression measured after 24 hrs by Western blot analysis; assay type: cell-based; conditions: dose 0.6-2.5 µM
[27] = target: T1, Signal transducer and activator of transcription 3; test: Inhibition of STAT3 activation in human MDA-MB-231 cells assessed as reduction in STAT3 phosphorylation at Tyr705 residue at 1 uM measured after 24 hrs by Western blot analysis relative to control; assay type: cell-based
[28] = target: T1, Signal transducer and activator of transcription 3; test: Inhibition of STAT3 in human MDA-MB-231 cells assessed as downregulation of survivin expression measured after 24 hrs by Western blot analysis; assay type: cell-based; conditions: dose 0.6-2.5 µM
MDA-MB-231 [29] = test: Antimetastatic activity against human MDA-MB-231 cells assessed as reduction in cell invasion incubated for 24 hrs by crystal violet staining based transwell invasion assay; assay type: functional; conditions: dose 0.1875-3 µM

inhibition [2]: Dose-dependent-effect | inhibition [19]: inactive | inhibition [20]: Dose-dependent-effect | inhibition [23]: Dose-dependent-effect | inhibition [26]: Dose-dependent-effect | inhibition [27]: Active
SMILES: O=C1C(=O)c2c(oc3c2CCN(CCN2CCCCC2)C3=O)-c2ccccc21
Activity (MDA-MB-231 [1]): inactive | inhibition (Mus musculus): Active | inhibition (MDA-MB-231 [3]): Active | Activity (MDA-MB-231 [4]): Active | Activity (MCF7 [5]): inactive | Activity (MDA-MB-231 [6]): Active | inhibition (MDA-MB-231 [7]): inactive | Activity (MDA-MB-231 [8]): Active; Less Sensitivity Observed | Activity (MDA-MB-231 [9]): Active | Activity (MCF7 [10]): Active | Activity (MDA-MB-468 [11]): Active; Less Sensitivity Observed | inhibition (MDA-MB-468 [12]): Active | Activity (MDA-MB-231 [13]): inactive | Activity (MDA-MB-468 [14]): Active | Activity (MCF7 [15]): Dose-dependent-effect | Activity (MDA-MB-231 [16]): Dose-dependent-effect | Activity (MDA-MB-468 [17]): Active | Activity (MDA-MB-231 [18]): Active | Activity (MDA-MB-468 [21]): Active | Activity (MDA-MB-231 [22]): Active | Activity (MCF7 [24]): inactive | Activity (MDA-MB-231 [25]): Active | inhibition [28]: Dose-dependent-effect | Activity (MDA-MB-231 [29]): Dose-dependent-effect
